Each structure is given as a SMILES string. “Also recorded” adds a separate entry of the source.

Experimental findings from US20230173295A1, “Systems, Devices, and Methods for Gamma Entrainment using Sensory Stimuli to Alleviate Cognitive Deficits and/or Neuroinflammation Induced by Chemotherapy Agents” (Massachusetts Institute of Technology, priority 2020, published 2023) are described below.

For data set [1], the system named is C57/BL6J male mouse. Description: MTX induced chemo brain model: survival rate and body weight. To be noted: 100 mg/kg MTX i.p.
Procedure: P21 C57/BL6J male mouse received i.p. injection of either 100 mg/kg MTX or volume-matched PBS on P21, P28, P35 (i.e., 21 days after birth/21 days old, 28 days old, 35 days old) (FIG. 1A). Stim (S) group received 1 hr of 40 Hz audio+visual sensory stimulation immediately after the first injection, and then received 1 hr stimulation every day after that day's injection until the day before they were sacrificed. No stim (NS) group stayed under a dim light for 1 hr immediately after the first injection, and then stayed under a dim light for 1 hr every day until the day before they were sacrificed. Every animal was single-caged in a caged covered with a black-plastic bag on every wall but one side for the duration of 1 hr stim/sham period and then group housed with their littermates.
Another chemotherapeutic agent, methotrexate (MTX)-induced chemo brain animals were tested.
Data set [2] deals with C57/BL6J male mouse. Description: MTX induced chemo brain model: novel object recognition (NOR). The conditions noted are these: MTX without GENUS. The class given is in vivo. As to the method:
Animals were habituated in an OFT box for 10 min, 3 consecutive days. On the 4th day, two identical wooden blocks (Premium wooden building blocks set, Cubbie Lee) were placed in the chamber, and animals were allowed to explore the objects for 5 min, then the animals were returned to their home cage for 5 min. In the test phase, one of the wooden block is switched to a novel wooden block with a different shape, and the time spent exploring the familiar and new object was measured for 10 min. Discrimination ratio was calculated as time spent to explore the new object divided by the sum of time spent to explore both old and new object.
(§1) OFT, MWM behavior was tracked with a behavior tracking software (EthoVision XT, Nodulus). NOR and puzzle box behavior was scored by manual counting. Zeiss LSM 710 and Zeiss LSM 880 confocal microscope with Zen software was used to capture fluorescence images. A 3D image analysis software (IMARIS, Bitplane) was used to score Iba1 and GFAP positive voxels, and the area covered by MBP, ventricle size and cell number counting was scored with ImageJ software. Researcher was blinded for the experimental group during data analysis.

The test system of data set [3] is C57/BL6J male mouse. Put plainly: MTX induced chemo brain model: open field test (OFT). To be noted: MTX vs PBS. Type of data set: in vivo. As to the method:
Animals were placed in the center of 45×45 cm×40 cm (W×L×H) white acrylic box and their movement were tracked with a behavior tracking software (EthoVision XT, nodulus) for 10 min. 22.5 cm×22.5 cm area in the center of the box was marked as ‘center area’.
as §1

The test system of data set [4] is C57/BL6J male mouse. Description: MTX induced chemo brain model: immunohistochemistry of brain slices. The class given is in vivo. The conditions noted are these: MTX NS. As to the method: 30˜40 μm thick vibratome sectioned brain slices were washed in PBS, then incubated in a blocking solution (3% normal donkey serum (Millipore Sigma, S30-M) and 0.3% Triton X-100 (Sigma-Aldrich, T8787-100ML) in PBS) for 2 hrs. Then, slices were treated with a blocking solution containing α-Iba1 (1:500, Abcam, ab178846), α-GFAP (1:1000, Novus Biologicals, NBP1-05198), α-MBP (1:500, Millipore, AB9348), α-yH2AX (1:500, EMD Millipore, 05-636), α-Iba1 (1:500, SYSY, 234004), α-Olig2 (1:200, Abcam, ab109186), α-Pdgfra (1:100, Abcam, ab90967) and α-Dcx (1:500, Cell signaling technology, 4604S) in a 4° C.-10° C. controlled cold room for 2 overnight. […]
OFT, MWM behavior was tracked with a behavior tracking software (EthoVision XT, Nodulus). NOR and puzzle box behavior was scored by manual counting. Zeiss LSM 710 and Zeiss LSM 880 confocal microscope with Zen software was used to capture fluorescence images. A 3D image analysis software (IMARIS, Bitplane) was used to score Iba1 and GFAP positive voxels, and the area covered by MBP, ventricle size and cell number counting was scored with ImageJ software. […]

For data set [5], the system named is C57/BL6J male mouse. Description: MTX induced chemo brain model: Morris water maze (MWM) test. The class given is in vivo. As to the method: A circular cylinder with 122 cm diameter was filled with tap water (22° C.-24° C.) and a white paint was added to make the water opaque. The area was divided into 4 equal quardrants and a 10 cm diameter platform was placed in the center of the target quardrant (TQ), the platform being 1 inch lower than the water level. On the first day of training, animals were placed on the platform for 30 seconds, and then retrieved from the water (priming). After 1 minute of priming, animals were placed into the chamber facing the chamber wall. Time to reach the platform was measured when the animal was sitting on the platform for >1s. For 5 consecutive days, animals performed two trials, spaced 1 min. After 5 days of training, the platform was removed from the chamber, and the animals were placed in the center of the chamber. For 1 min duration, time spent in TQ were measured Novel Object Recognition (NOR)
as §1

Data set [6] has as its system C57/BL6J male mouse. Put plainly: MTX induced chemo brain model: puzzle box test. Type of data set: in vivo. To be noted: MTX treatment. As to the method:
Animals were placed in a testing arena containing a lighted (55 cm×28 cm) and a dark (15 cm×28 cm) compartment with a connecting tunnel (4 cm×4 cm×2.5 cm), facing the farthest wall from the dark compartment. 3 trials were performed for 3 days. 1 introductory period without any obstacles blocking the tunnel and 2 ‘easy task’ in which animals have to pass a corridor (4 cm×4 cm×12 cm). On day 2, 1 ‘easy task’ and 2 ‘intermediate task’ in which the corridor is blocked with sawdust and the animals have to dig through to reach the dark chamber were performed. On day 3, 1 ‘intermediate task’ and 2 ‘hard task’ where the tunnel was plugged with a tissue were performed. Time of the first entry to the dark chamber was recorded for every trials.
as §1

Consider `CN(Cc1cnc2nc(N)nc(N)c2n1)c1ccc(C(=O)N[C@@H](CCC(=O)O)C(=O)O)cc1` [MTX, methotrexate], for which, in the data set on C57/BL6J male mouse [1] (1 week after the first administration), the survival rate is ~60%. For the same compound, the lethality in the data set with C57/BL6J male mouse [1] (within 1 week after the first MTX injection) turned out to be 40%. In the data set with C57/BL6J male mouse [2], the “NOR: time exploring novel and familiar object” value is “spent comparable time exploring noble and familiar object”. In the data set with C57/BL6J male mouse [3], the “locomotion in OFT” value is reported as “neither GENUS nor methotrexate (MTX) treatment affected locomotion” and the “time spent in center area during OFT” value was “GENUS but not MTX significantly increased time spent in center area”. Also, the “Iba1 signal in corpus callosum” value in the data set on C57/BL6J male mouse [4] was “dramatically increased; also recorded: significantly higher”. For the same compound, the “MWM performance: swimming speed, spatial learning and memory” value with C57/BL6J male mouse [5] (PBS NS, MTX NS, PBS S, MTX S) was “comparable performance in swimming speed, spatial learning and memory”. In addition, in the data set on C57/BL6J male mouse [5] (mouse, in vivo), the MWM learning curve entry was “neither MTX nor GENUS altered learning curve” and the MWM swimming speed entry is given as “neither MTX nor GENUS altered swimming speed”. Moreover, the “puzzle box test performance” value in the data set on C57/BL6J male mouse [6] was “cognitive impairment”.
